In patent publication US20160281095A1, “Alkynyl-Derivatized Cap Analogs, Preparation and Uses Thereof” (LIFE TECHNOLOGIES CORPORATION, priority 2011, published 2016):

Key:
T7 RNA polymerase = T7 RNA polymerase (Escherichia phage T7, UniProt P00573); conditions: T7 RNA polymerase transcription, pTri β actin template, cap analog 1.6 mM, GTP 0.4 mM, 37° C. 2 h, 20% dPAGE gel
Experimental: The gel shift assay was performed by using a pTri β actin template and the IVT reaction used linearized AmbLuc poly(A) DNA template and a [sequence] kit (Life Technologies Corporation). Radiation in the gel bands of interest was quantified by a phosphorimager (GE Healthcare).
To analyze capping efficiency during transcription a Gel Shift Assay was used. The Gel shift assay was performed using the MAXISCRIPT kit (Life Technologies Corporation) by following the manufacturer's protocol. A typical 20 μL T7 RNA polymerase transcription reaction contained the following reagents at the final concentrations indicated: linearized pTri β actin vector template, 0.5 μg; ATP, 2 mM; GTP, 0.4 mM; compound standard cap analog and alkynyl-derivatized cap analog 7, 1.6 mM each in separate reactions; 10× reaction buffer, 4 μl; T7 RNA polymerase, 50 units/μL; (α-^32P) ATP, 800 (Ci/mmol); and DEPC water. The control reaction was a normal in vitro transcription reaction, in which no cap analog was added. […] Radiation in the gel bands of interest was quantified by a phosphoroimager (GE Healthcare).
Due to the omission of CTP and UTP, only the 5′ end was transcribed by T7 RNA polymerase, producing a transcript of six nucleotides in length. The resulting transcription products were analyzed by 20% denaturing polyacrylamide/8 M urea gel.

HeLa cells = assay: Translation efficiency: luciferase activity after transfection of capped luciferase mRNA poly(A); assay type: cell-based; conditions: luciferase mRNA poly(A) transfected into HeLa cells, 16 h, versus m^7GpppG-capped mRNA
Experimental: Alkynyl-derivatized capped mRNAs were produced in vitro for use in translation assays. […] In order to hydrolyze the remaining plasmid DNA, 1 μL of TURBO DNase was added to the reaction mixture and further incubated at 37° C. for 15 min. Purification of transcription reactions was done by using the MEGAclear™ kit (Life Technologies Corp) as per manufacturer's protocol. The in vitro transcription results in a mixture of 5′analog-capped and uncapped mRNAs.
To determine the translational efficiency, the luciferase mRNA poly(A) product generated from the transcription reaction using a standard cap and the luciferase mRNA poly(A) product generated as described above using the alkyne-derivatized cap 7 were transfected separately into HeLa cells.
The HeLa cells (60,000/well in 24 well-plates) were seeded at least 12 h before transfection in growth medium without antibiotics. Capped RNA was prepared by mixing 600 ng of RNA, 2.5 μL of TFX-20™ (Promega), and 300 μL of serum-free DMEM in polystyrene tubes and incubated for 15 min at room temperature. […] The plate was mixed carefully to disrupt the cells and 10 μL of cell lysates from each transfection reactions were mixed with 100 μL of luciferase substrate (Promega) and measured immediately on a POLARstar OPTIMA Luminometer (BMG Labtech) in 96-well plates. […]

T7 RNA polymerase, sequence (P00573 whole entry): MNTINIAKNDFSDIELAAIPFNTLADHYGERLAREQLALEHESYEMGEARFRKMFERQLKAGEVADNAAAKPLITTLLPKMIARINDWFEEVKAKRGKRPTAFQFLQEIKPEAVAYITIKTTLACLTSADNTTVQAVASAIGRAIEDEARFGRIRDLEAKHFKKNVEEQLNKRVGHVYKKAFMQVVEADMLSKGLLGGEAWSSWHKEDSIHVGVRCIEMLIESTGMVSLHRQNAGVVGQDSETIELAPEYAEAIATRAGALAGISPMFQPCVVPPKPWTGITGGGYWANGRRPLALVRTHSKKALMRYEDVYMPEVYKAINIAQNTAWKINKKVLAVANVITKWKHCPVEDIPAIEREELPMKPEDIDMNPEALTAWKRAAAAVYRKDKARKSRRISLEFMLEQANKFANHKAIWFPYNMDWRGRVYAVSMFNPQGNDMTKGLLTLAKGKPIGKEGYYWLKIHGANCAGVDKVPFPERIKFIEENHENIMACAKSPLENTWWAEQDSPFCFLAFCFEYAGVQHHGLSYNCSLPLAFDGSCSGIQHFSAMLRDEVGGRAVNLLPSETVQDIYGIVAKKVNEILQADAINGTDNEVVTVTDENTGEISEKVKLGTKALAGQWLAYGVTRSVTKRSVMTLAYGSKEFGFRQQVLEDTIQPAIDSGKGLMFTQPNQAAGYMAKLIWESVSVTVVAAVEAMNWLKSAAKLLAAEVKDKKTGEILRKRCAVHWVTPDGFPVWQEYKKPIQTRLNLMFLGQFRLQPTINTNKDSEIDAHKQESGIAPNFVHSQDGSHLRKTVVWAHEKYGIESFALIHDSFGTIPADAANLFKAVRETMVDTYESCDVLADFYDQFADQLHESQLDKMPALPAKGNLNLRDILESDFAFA

SMILES	capping efficiency (T7 RNA polymerase)	translational efficiency (luciferase signal) relative to mRNA capped with the standard cap analog (HeLa cells)	translational efficiency (luciferase signal) relative to mRNA capped with the standard cap analog (HeLa cells; listed as 3′-O-propargyl substituted cap analog)
C#CCO[C@H]1[C@@H](O)[C@H](n2c[n+](C)c3c(=O)[nH]c(N)nc32)O[C@@H]1COP(=O)(O)OP(=O)(O)OP(=O)(O)OC[C@H]1O[C@@H](n2cnc3c(=O)[nH]c(N)nc32)[C@H](O)[C@@H]1O [compound 7, m^7,3′-O-propargylG[5′]ppp[5′]G]	60%	up to 3 fold	3.1 fold
Cn1c[n+]([C@@H]2O[C@H](COP(=O)(O)OP(=O)(O)OP(=O)(O)OC[C@H]3O[C@@H](n4cnc5c(=O)[nH]c(N)nc54)[C@H](O)[C@@H]3O)[C@@H](O)[C@H]2O)c2nc(N)[nH]c(=O)c21 [standard cap, m^7G(5′)ppp(5′)G, reference compound]	73%	–	–
